Here are results for five compounds from US3993749A, “Rapamycin and process of preparation” (Ayerst McKenna and Harrison Ltd., priority 1975, dated 1976).

One data set can be described thus: solubility. Format: physicochemical.
The nature of the next data set: LD50 in mice. Particulars: mouse, in vivo.
Data set [1] deals with Candida albicans (5 strains). Put plainly: minimum inhibitory concentration of rapamycin. The format is cell-based. To be noted: against Candida albicans. An excerpt: (§1) The antifungal activity of this compound is demonstrable in standard tests used for this purpose, for example, in the tests described in "Antiseptics, Disinfectants, Fungicides and Sterilization", G. F. Reddish, Ed., 2nd ed., Lea and Febiger, Philadelphia, 1957 or by D. C. Grove and W. A. Randall in "Assay Methods of Antibiotics", Med. Encycl. Inc., New York 1955.
(§2) h. the minimum inhibitory concentration of rapamycin against various microorganism is listed below: […]

A further data set relates to C. morrera. As to the kind of experiment: minimum inhibitory concentration of rapamycin. Format: cell-based.
Description: as §1, §2

In a further data set the test system is C. intermedia. Put plainly: minimum inhibitory concentration of rapamycin. The format is cell-based. To be noted: Sungouiella intermedia.
Description: as §1, §2

In another data set the test system is C. stellatoidea. As to the kind of experiment: minimum inhibitory concentration of rapamycin. The format is cell-based. Particulars: Candida albicans.
Description: as §1, §2

For a further data set, the system named is C. lipolytica. Put plainly: minimum inhibitory concentration of rapamycin. Particulars: Yarrowia lipolytica. The format is cell-based.
Description: as §1, §2

Another data set concerns C. parapsilosis. Put plainly: minimum inhibitory concentration of rapamycin. To be noted: Lodderomyces parapsilosis. The format is cell-based.
Description: as §1, §2

For a further data set, the system named is T. mentagrophytes. As to the kind of experiment: minimum inhibitory concentration of rapamycin. The format is cell-based. To be noted: Trichophyton mentagrophytes, read-out: minimum inhibitory concentration.
Description: as §1, §2

Another data set has as its system C. tropicalis. Put plainly: minimum inhibitory concentration of rapamycin. Format: cell-based. Particulars: Candida tropicalis.
Description: as §1, §2

In another data set the test system is C. catenulata. As to the kind of experiment: minimum inhibitory concentration of rapamycin. Format: cell-based.
Description: as §1, §2

A further data set deals with C. pseudtropicalis. As to the kind of experiment: minimum inhibitory concentration of rapamycin. The format is cell-based. To be noted: read-out: minimum inhibitory concentration.
Description: as §1, §2

The nature of data set [2]: irritation, drops applied to a rabbit's eye. The format is in vivo. To be noted: two drops of a 0.5% suspension. On the procedure: (§3) A 1% suspension (0.2 ml) of rapamycin in water containing 1.5% polysorbate 80 (Tween 80), when injected intradermally into a rabbit's ear caused no irritation. Similarly, two drops of a 0.5% suspension applied to a rabbit's eye caused no irritation.

The next data set deals with M. gypseum. As to the kind of experiment: minimum inhibitory concentration of rapamycin. The format is cell-based, Microsporum gypseum. To be noted: Nannizzia gypsea.
Description: as §1, §2

A short description of data set [3]: irritation, intradermal injection into a rabbit's ear. The format is in vivo. To be noted: 1% suspension (0.2 ml) in water containing […] polysorbate 80, intradermal. How it is done:
as §3

A further data set concerns C. albicans ATCC 11651. Put plainly: protection studies in mice infected with C. albicans. Format: in vivo. An excerpt: In protection studies, mice were infected by intravenous injection of C. albicans ATCC 11651. […] At this dose 50% of the mice were protected.
A further data set concerns C. albicans. To be noted: prior art; cited from earlier work.
For data set [4] the following is noted: prior art, route not given; cited from earlier work.
The next data set deals with fungi. To be noted: prior art; cited from earlier work.
The subject of a further data set is bacteria. To be noted: prior art; cited from earlier work.
For another data set, the system named is Candida strains. Particulars: prior art; cited from earlier work.
In a further data set the test system is tumor. Particulars: prior art; cited from earlier work.
In a further data set the test system is gram positive organisms. To be noted: prior art; cited from earlier work.

≈ marks a conversion by molar mass, not a printed value.

As to `CO[C@H]1C[C@@H]2CC[C@@H](C)[C@@](O)(O2)C(=O)C(=O)N2CCCC[C@H]2C(=O)O[C@H]([C@H](C)C[C@@H]2CC[C@@H](O)[C@H](OC)C2)CC(=O)[C@H](C)/C=C(\C)[C@@H](O)[C@@H](OC)C(=O)[C@H](C)C[C@H](C)/C=C/C=C/C=C/1C` [Rapamycin, rapamycin], the solubility entry in the data set “solubility” (in ether, chloroform, acetone, methanol and dimethylformamide) was “soluble”; in the data set “solubility” (in hexane and petroleum ether), “very sparingly soluble”; in “solubility” (in water), “substantially insoluble”. The figures for the median lethal dose (LD50) in the data set “LD50 in mice” (ip) and in “LD50 in mice” (po) were 597 ± 28.1 mg/kg and greater than 2500 mg/kg, respectively. Moreover, the inhibitory activity result in data set [1] was “especially pronounced”. Besides, the MIC was less than 0.1 µg/mL in the data set on C. morrera; less than 0.1 µg/mL in the data set with C. intermedia; less than 0.1 µg/mL with C. stellatoidea; 2.5 µg/mL (≈ 2.73 µM) against C. lipolytica; less than 0.1 µg/mL against C. parapsilosis; greater than 1000 µg/mL in the data set on T. mentagrophytes. The MIC is 0.1 µg/mL (≈ 0.109 µM) with C. tropicalis, less than 0.1 µg/mL in the data set on C. catenulata, greater than 5 µg/mL in the data set with C. pseudtropicalis and 12.5 µg/mL (≈ 13.7 µM) with M. gypseum. In addition, the irritation entry in data set [2] and in [3] was “no irritation” in each case. In addition, the mice survived in the data set with C. albicans ATCC 11651 (10 mg/kg orally) is 4 out of 10. In the data set on C. albicans ATCC 11651 (10 mg/kg s.c. at 1, 4 and 24 hours after i.v. infection), this compound returned a mice protected of 50%. The protection entry in the data set with C. albicans ATCC 11651 (25 mg/kg orally) and in the data set with C. albicans ATCC 11651 (25 mg/kg s.c.) was “complete protection” each time.

Turning to Mycotrienin, in the data set on C. albicans, the “MIC against C. albicans” value was 5 µg/mL. Besides, in data set [4], the LD50 in mice was 15 mg/kg. For the same compound, the antifungal activity entry in the data set on fungi is reported as “low antifungal activity”.

On to Proticin, for which the antibacterial activity result with bacteria was “antibacterial”. The antifungal activity entry in the data set with fungi is “without any antifungal activity”.

Consider Resistaphylin, for which the antibacterial activity entry in the data set with bacteria is “antibacterial”. Also, the antifungal activity entry with fungi was “without any antifungal activity”.

Take Trienine: the “activity against Candida strains” value in the data set with Candida strains was “only marginal activity”. Moreover, the antitumor activity entry in the data set on tumor is “antitumor activity”. Also, the “activity against gram positive organisms” value in the data set on gram positive organisms is listed as “marked activity”.
